Experimental data reported in patent US8324390B2, “Tetrazole-substituted anthranilamides as pesticides” (Bayer CropScience AG, priority 2008, dated 2012).
Where two headings read alike, the source gives them in different places.

How the values were obtained:
[1] = system: green peach aphid (Myzus persicae); test: Myzus test (MYZUPE spray treatment); assay type: in vivo; conditions: Myzus persicae, foliar, read-out: effect in % (aphids killed)
From the text: Solvent: 78 parts by weight of acetone
(§1) Solvent: 78.0 parts by weight of acetone

[2] = system: larvae of the mustard beetle (Phaedon cochleariae); test: Phaedon test (PHAECO spray treatment); conditions: Phaedon cochleariae, in Brassica rapa, foliar, read-out: effect in % (beetle larvae killed)
[3] = system: caterpillars of the armyworm (Spodoptera frugiperda); test: Spodoptera frugiperda test (SPODFR spray treatment); assay type: in vivo; conditions: Spodoptera frugiperda, foliar, read-out: effect in % (caterpillars killed)
From the text: as §1

[4] = log P determination by HPLC (EEC Directive 79/831 Annex V.A8); assay type: physicochemical
Method: The measurements were carried out using an Agilent 1100 LC system with a 50*4.6 Zorbax Eclipse C18 1.8 μm column (oven temperature 55° C., flow rate 2.0 ml/min).
The following mobile phases were used:
Mobile phase A: acetonitrile+1000 μl of formic acid/l
Mobile phase B: Millipore water+900 μl of formic acid/l

[5] = application rate 100 g/ha, Chinese cabbage leaf discs
[6] = application rate 100 g/ha, maize leaf discs
[7] = reversed-phase HPLC, Zorbax Eclipse C18 column, determined by HPLC according to EEC Directive 79/831 Annex V.A8, read-out: log P
[8] = reversed-phase HPLC, Zorbax Eclipse C18 column, by HPLC according to EEC Directive 79/831 Annex V.A8, read-out: log P

SMILES | pest or weed control at 100 g/ha ([1]; in Brassica rapa) [%] | pest or weed control at 100 g/ha [2] [%] | pest or weed control at 100 g/ha ([3]; in Zea mays) [%] | chromatographic logP ([4]; log P) | pest or weed control at 100 g/ha [1, 5] [%] | pest or weed control at 100 g/ha [3, 6] [%] | chromatographic logP [4, 7] | chromatographic logP [4, 8] | chromatographic logP ([4]; by HPLC according to EEC Directive 79/831 Annex V.A8, read-out: log P)
Cc1cc(C#N)cc(C(=O)NCCC(F)(F)F)c1NC(=O)c1cc(Cn2nnc(C(F)(F)F)n2)nn1-c1ncccc1Cl [Example 159] | ≥ 80 | ≥ 80 | ≥ 80 | 3.22 |  |  |  |  | 
CCNC(=O)c1cc(I)cc(C)c1NC(=O)c1cc(Cn2nnnc2C(F)(F)F)nn1-c1ncccc1Br [Example 503] |  | ≥ 80 |  |  | ≥ 80 | ≥ 80 | 3.16 |  | 
CNC(=O)c1cc(C#N)cc(C)c1NC(=O)c1cc(Cn2nnc(C(F)(F)F)n2)nn1-c1c(Cl)cccc1Cl [Example 312] |  | ≥ 80 |  |  | ≥ 80 | ≥ 80 |  | 3.28 | 
CCNC(=O)c1cc(Br)cc(C)c1NC(=O)c1cc(Cn2nnnc2C(F)(F)F)nn1-c1ncccc1Br [Example 505] |  | ≥ 80 |  |  | ≥ 80 | ≥ 80 | 3.02 |  | 
Cc1cc(Cl)cc(C(=O)NC(C)(C)C)c1NC(=O)c1cc(Cn2nnnc2C(F)F)nn1-c1ncccc1Cl [Example 475] | ≥ 80 | ≥ 80 | ≥ 80 | 3.09 |  |  |  |  | 
Cc1cc(F)cc(C(=O)NC(C)C2CC2)c1NC(=O)c1cc(Cn2nnc(C(F)(F)F)n2)nn1-c1ncccc1Cl (stereo not shown) [Example 32] | ≥ 80 | ≥ 80 | ≥ 80 | 3.41 |  |  |  |  | 
Cc1cc(Br)cc(C(=O)NC2CC2)c1NC(=O)c1cc(Cn2nnc(C(F)(F)F)n2)nn1-c1ncccc1Cl [Example 26] | ≥ 80 | ≥ 80 | ≥ 80 | 3.3 |  |  |  |  | 
Cc1cc(C#N)cc(C(=O)NC(C)C)c1NC(=O)c1cc(Cn2nnnc2C(F)F)nn1-c1ncccc1Cl [Example 463] | ≥ 80 | ≥ 80 | ≥ 80 | 2.36 |  |  |  |  | 
Cc1cc(F)cc(C(N)=O)c1NC(=O)c1cc(Cn2nnc(C(F)(F)F)n2)nn1-c1ncccc1Cl [Example 45] | ≥ 80 | ≥ 80 | ≥ 80 | 2.46 |  |  |  |  | 
Cc1cc(Br)cc(C(=O)NC(C)(C)C)c1NC(=O)c1cc(Cn2nnnc2C(F)(F)F)nn1-c1ncccc1Br [Example 507] |  | ≥ 80 |  |  | ≥ 80 | ≥ 80 | 3.65 |  | 
CCNC(=O)c1cc(C#N)cc(C)c1NC(=O)c1cc(C(C)n2nnnc2C(F)(F)F)nn1-c1ncccc1Cl (stereo not shown) [Example 521] | ≥ 80 | ≥ 80 | ≥ 80 | 2.74 |  |  |  |  | 
CNC(=O)c1cc(Cl)cc(C)c1NC(=O)c1cc(C(C)n2nnc(C(F)(F)F)n2)nn1-c1ncccc1Cl (stereo not shown) [Example 543] | ≥ 80 | ≥ 80 | ≥ 80 | 3.26 |  |  |  |  | 
Cc1cc(Cl)cc(C(=O)NC(C)(C)C)c1NC(=O)c1cc(Cn2nnnc2C(F)(F)C(F)(F)F)nn1-c1ncccc1Cl [Example 443] | ≥ 80 | ≥ 80 | ≥ 80 | 3.92 |  |  |  |  | 
Cc1cc(C#N)cc(C(=O)NCC(C)C)c1NC(=O)c1cc(Cn2nnc(C(F)(F)F)n2)nn1-c1ccccc1Cl [Example 533] |  | ≥ 80 |  |  | ≥ 80 | ≥ 80 | 3.84 |  | 
Cc1cc(Cl)cc(C(=O)NC2CC2)c1NC(=O)c1cc(Cn2nnnc2C(F)(F)C(F)(F)F)nn1-c1ncccc1Br [Example 515] |  | ≥ 80 |  |  | ≥ 80 | ≥ 80 | 3.29 |  | 
Cc1cc(I)cc(C(N)=O)c1NC(=O)c1cc(Cn2nnnc2C(F)(F)F)nn1-c1ncccc1C(F)(F)F [Example 455] |  | ≥ 80 |  |  | ≥ 80 | ≥ 80 | 2.83 |  | 
CCNC(=O)c1cc(C#N)cc(C)c1NC(=O)c1cc(Cn2nnnc2C(F)(F)F)nn1-c1ncccc1Cl [Example 191] | ≥ 80 | ≥ 80 | ≥ 80 | 2.5 |  |  |  |  | 

SMILES | pest or weed control at 100 g/ha ([1]; in Brassica rapa) [%] | pest or weed control at 100 g/ha [2] [%] | pest or weed control at 100 g/ha ([3]; in Zea mays) [%] | chromatographic logP ([4]; log P) | pest or weed control at 100 g/ha [1, 5] [%] | pest or weed control at 100 g/ha [3, 6] [%] | chromatographic logP [4, 7] | chromatographic logP [4, 8] | chromatographic logP ([4]; by HPLC according to EEC Directive 79/831 Annex V.A8, read-out: log P)
Cc1cc(Cl)cc(C(=O)NC2CC2)c1NC(=O)c1cc(Cn2nnc(C(F)(F)F)n2)nn1-c1ncccc1Br [Example 335] |  | ≥ 80 |  |  | ≥ 80 | ≥ 80 |  | 3.25 | 
Cc1cc(C#N)cc(C(=O)NC2CC2)c1NC(=O)c1cc(Cn2nnc(C(F)(F)C(F)(F)C(F)(F)F)n2)nn1-c1ncccc1Cl [Example 113] | ≥ 80 | ≥ 80 | ≥ 80 |  |  |  |  |  | 3.58
Cc1cc(C#N)cc(C(=O)NC(C)C(F)(F)F)c1NC(=O)c1cc(Cn2nnc(C(F)(F)F)n2)nn1-c1ncccc1Cl (stereo not shown) [Example 433] | ≥ 80 | ≥ 80 | ≥ 80 | 3.25 |  |  |  |  | 
Cc1cc(C#N)cc(C(=O)NCC#N)c1NC(=O)c1cc(Cn2nnc(C(F)(F)F)n2)nn1-c1ncccc1Cl [Example 18] | ≥ 80 | ≥ 80 | ≥ 80 | 2.61 |  |  |  |  | 
CCOCCNC(=O)c1cc(C#N)cc(C)c1NC(=O)c1cc(Cn2nnc(C(F)(F)F)n2)nn1-c1ncccc1Cl [Example 211] | ≥ 80 | ≥ 80 | ≥ 80 | 2.99 |  |  |  |  | 
CSC[C@H](C)NC(=O)c1cc(I)cc(C)c1NC(=O)c1cc(Cn2nnc(C(F)(C(F)(F)F)C(F)(F)F)n2)nn1-c1ncccc1Cl [Example 385] |  | ≥ 80 |  |  | ≥ 80 | ≥ 80 |  | 4.63 | 
Cc1cc(I)cc(C(=O)NC(C)C)c1NC(=O)c1cc(Cn2nnnc2C(F)(F)F)nn1-c1ncccc1Cl [Example 173] | ≥ 80 | ≥ 80 | ≥ 80 | 3.36 |  |  |  |  | 
CNC(=O)c1cc(I)cc(C)c1NC(=O)c1cc(Cn2nnnc2C(F)(F)F)nn1-c1ncccc1Br [Example 506] |  | ≥ 80 |  |  | ≥ 80 | ≥ 80 | 2.91 |  | 
CSC[C@H](C)NC(=O)c1cc(I)cc(C)c1NC(=O)c1cc(Cn2nnc(C(F)(F)F)n2)nn1-c1ncccc1Cl [Example 74] | ≥ 80 | ≥ 80 | ≥ 80 | 3.9 |  |  |  |  | 
CCC(C)NC(=O)c1cc(C#N)cc(C)c1NC(=O)c1cc(Cn2nnc(C(F)(F)F)n2)nn1-c1ccccc1Cl (stereo not shown) [Example 530] |  | ≥ 80 |  |  | ≥ 80 | ≥ 80 | 3.81 |  | 
Cc1cc(C#N)cc(C(=O)NC(C)C2CC2)c1NC(=O)c1cc(Cn2nnnc2C(F)F)nn1-c1ncccc1Cl (stereo not shown) [Example 467] | ≥ 80 | ≥ 80 | ≥ 80 | 2.58 |  |  |  |  | 
CNC(=O)c1cc(C#N)cc(C)c1NC(=O)c1cc(Cn2nnc(C3CC3)n2)nn1-c1ncccc1Cl [Example 102] | ≥ 80 | ≥ 80 | ≥ 80 | 2.15 |  |  |  |  | 
Cc1cc(Cl)cc(C(=O)NC2CC2)c1NC(=O)c1cc(Cn2nnnc2C(F)(F)F)nn1-c1ncccc1Cl [Example 163] | ≥ 80 | ≥ 80 | ≥ 80 | 2.89 |  |  |  |  | 
CNC(=O)c1cc(C#N)cc(C)c1NC(=O)c1cc(Cn2nnc(C(F)(F)F)n2)nn1-c1ncccc1F [Example 405] |  | ≥ 80 |  |  | ≥ 80 | ≥ 80 | 2.46 |  | 
Cc1cc(I)cc(C(=O)NC(C)(C)C)c1NC(=O)c1cc(Cn2nnnc2C(F)(F)F)nn1-c1ncccc1Cl [Example 183] | ≥ 80 | ≥ 80 | ≥ 80 | 3.74 |  |  |  |  | 
Cc1cc(Br)cc(C(=O)NC2CC2)c1NC(=O)c1cc(Cn2nnc(C(F)F)n2)nn1-c1ncccc1Cl [Example 298] | ≥ 80 | ≥ 80 | ≥ 80 | 2.85 |  |  |  |  | 
Cc1cc(C#N)cc(C(=O)NC(C)(C)C)c1NC(=O)c1cc(Cn2nnc(C(F)(F)C(F)(F)F)n2)nn1-c1ccccc1Cl [Example 434] |  | ≥ 80 |  |  | ≥ 80 | ≥ 80 | 4.25 |  | 
